We go through two compounds from patent US20260185979A1, “APPARATUSES AND METHODS FOR ANALYZING LIVE CELLS” (AGILENT TECHNOLOGIES, INC., priority 2022, published 2026).

The test system of test [1] is MCF-7-red target cells. Nature of the test: ECM invasion and cytotoxicity assay: NK-92 cells over matrigel layered on MCF-7-red cells (impedance and live cell imaging, xCELLigence RTCA eSight). The format is cell-based, human. The conditions noted are these: for killing of target cells by NK-92 (drop in impedance): MMP inhibitor 2 μM and 10 μM in matrigel and media. On the procedure:
An exemplary protocol is described as follows. Briefly, varying volumes of matrigel (50-110 microliters (μL)/well; 6 milligrams (mg)/millilter (mL)) representing increasing distance for invasion is layered over MCF-7 (available from American Type Culture Collection (ATCC)) human breast adenocarcinoma cells stably expressing nuclear-localized red fluorescent protein (MCF-7). NK-92 cells (available from Creative Bioarray, ATCC) are added over the solidified matrigel layer at E:T of 3:1. eLive Green (available from Agilent Technologies, shown in green) is added at 1 μL/mL. A broad spectrum MMP inhibitor (such as GM6001, available from Selleck Chemicals) is used to evaluate the role of matrix metalloproteinases (MMPs).
The ability of NK-92 cells to invade the matrigel and kill the MCF-7-red target cells was evaluated by concurrent impedance and imaging readouts on an XCELLIGENCE RTCA ESIGHT® imaging and sensing system (available from Agilent Tech., Inc.). Background impedance signal was measured with 50 μL of EMEM media in the wells of E-plate VIEW microplate (available from Agilent Technologies, Cat#0030060101030). MCF-7-red target cells (30,000 in 100 μL) were added to each well. The plate was placed at room temperature for thiry minutes to facilitate an even distribution of cells at the bottom. […] Impedance readings were collected every fifteen minutes, and photos were taken every sixty minutes. Images from four fields of view were acquired in each well in brightfield, red, and green fluorescence channels. […] Percent cytolysis was calculated from normalized cell impedance readings at seventy-two hours using the formula: [(1−(treated/untreated)*100]. […]
The ability of NK-92 cells to invade the matrigel and kill the MCF7-red target cells was evaluated by concurrent impedance and imaging readouts on an XCELLIGENCE RTCA ESIGHT® imaging and sensing system as outlined in FIG. 6A. Background impedance signal was measured with 50 μL of EMEM media in the wells of E-plate VIEW microplate. […]

Test [2] deals with NK-92 invasion. The conditions noted are these: transmigration assays; cited from earlier work.
For test [3], the system named is A431-red target cells. Nature of the test: ECM invasion and cytotoxicity assay: EpCAM-CAR-T cells over matrigel layered on A431-red cells (impedance and imaging). The format is cell-based, human. The conditions noted are these: for percent cytolysis (CAR-T killing): matrigel. On the procedure:
(§1) Briefly, matrigel (6 mg/ml) was layered (50 μL/ell) over A431-red target tumor cells expressing nuclear-localized mKate2 (red fluorescent protein). After 2 h, epithelial cell adhesion molecule (EpCAM)-CAR-T cells were seeded over the matrigel layer. Tumor cell growth and CAR-T cytotoxicity were determined from real-time impedance and live cell imaging data collected on the XCELLIGENCE RTCA ESIGHT® imaging and sensing system. Pemigatinib (1 μM, 5 μM and 10 μM), an inhibitor of FGFR isoforms 1-3, sold under the brand name Pemazyre was used to evaluate the role of FGFR signaling. Percent cytolysis was calculated from normalized cell impedance and imaging (red fluorescence) data using the formula [(1−(treated/control)*100].
(§2) The ability of EpCAM-CAR-T cells to invade the matrigel and kill A431-red target cells was evaluated using impedance and imaging readouts on an XCELLIGENCE RTCA ESIGHT® imaging and sensing system. The background impedance signal was measured with 50 μL of c-DMEM media in the wells of E-plate VIEW microplate (Agilent Technologies, Cat#0030060101030). Cell suspension of A 431-red cells was prepared in c-DMEM at desired cell numbers to be aliquot at 100 μL/well. After the addition of tumor cells, the E-plate was allowed to rest at room temperature for 30 min to facilitate an even distribution at the bottom. […] Impedance was read every 15 minutes and images were taken every 60 minutes. Images from four fields of view were acquired for each well in brightfield and red fluorescence channel. […]
(§3) The software generates a real-time plot of impedance data with time (X-axis) and Cell Index (CI, Y-axis). […] Normalized Cell Index (NCI(t)) was calculated by dividing the CI at time t (CI(t)) with CI at normalization time point (CI(tnormalization)). […] Percent cytolysis was calculated from NCI (impedance) using the formula [(1−(CAR-T treated/Pemigatinib treated)*100]. Percent cytolysis was calculated from red object counts/well (imaging) using the formula [(1−(CAR-T treated/Pemigatinib treated)*100].

Test [4] relates to A431 cells. Nature of the test: A431 cell proliferation, normalized cell index over time. The format is cell-based, human. How it is done:
as §1
as §2, with “μL/well.” for “μL/well. After the addition of tumor cells, the E-plate was allowed to rest at room temperature for 30 min to facilitate an even distribution at the bottom.”

For test [5], the system named is A431 cells. As to the kind of experiment: EpCAM-CAR-T cytotoxicity assay, A431 cells cultured in DMEM media (no matrigel). Type of test: cell-based, human. The conditions noted are these: Pemigatinib 5 μM and 10 μM, E:T 3.5, DMEM media. On the procedure: […] […] Tumor cell growth and CAR-T cytotoxicity were determined from real-time impedance and live cell imaging data collected on the XCELLIGENCE RTCA ESIGHT® imaging and sensing system. Pemigatinib (1 μM, 5 μM and 10 μM), an inhibitor of FGFR isoforms 1-3, sold under the brand name Pemazyre was used to evaluate the role of FGFR signaling. Percent cytolysis was calculated from normalized cell impedance and imaging (red fluorescence) data using the formula [(1−(treated/control)*100].
[…] The background impedance signal was measured with 50 μL of c-DMEM media in the wells of E-plate VIEW microplate (Agilent Technologies, Cat#0030060101030). […] Impedance was read every 15 minutes and images were taken every 60 minutes. Images from four fields of view were acquired for each well in brightfield and red fluorescence channel. […]
as §3

Entries after “also recorded” stand apart in the source; their conditions may differ.

For `CNC(=O)[C@H](Cc1c[nH]c2ccccc12)NC(=O)[C@@H](CC(=O)NO)CC(C)C` [GM6001, Ilomostat], the “target cell killing by GFP-NK92 cells (percent cytolysis from normalized impedance and red fluorescence imaging)” value in test [1] (2 μM and 10 μM) is “delayed and reduced target cell killing”. Besides, the “killing of target cells by NK-92 (drop in impedance)” value in test [1] is on record as “delayed but not abrogated”; in test [1] (listed as Ilomostat) it was “delayed the killing of target cells”. Moreover, the “NK-92 invasion in matrigel in the presence of MMP inhibitor” value in test [2] is on record as “reduced”.
With `CCN1C(=O)N(c2c(F)c(OC)cc(OC)c2F)Cc2cnc3[nH]c(CN4CCOCC4)cc3c21` [Pemigatinib], the entries for the “percent cytolysis (CAR-T killing)” value in test [3] (5 μM Pemigatinib with EpCAM-CAR-T) and in test [3] (10 μM Pemigatinib with EpCAM-CAR-T) were roughly 20% and −40%, respectively. Further, the “elimination of A431 cells in invasion assays” value in test [3] (E:T=20:1 and 1 μM Pemigatinib) was “Complete elimination”. The “proliferation of A431 cells (normalized cell index)” value was “reduces the proliferation of A431 cells in the presence of matrigel in a concentration-dependent manner; also recorded: reduced the proliferation of A431 cells with increasing concentrations tested” in test [4] (in the presence of matrigel, 1, 5 and 10 μM tested); “slows the proliferation of A431 cells in native DMEM media in a concentration dependent manner” in test [4] (native DMEM media, no matrigel). Moreover, the “A431 cytolysis by EpCAM-CAR-T cells in the presence of Pemigatinib” value in test [5] was “accelerated”.
